From patent US20240041042A1, “1-(PYRIDYL)-5-AZINYLPYRAZOLE DERIVATIVES, AND THEIR USE FOR CONTROL OF UNDESIRED PLANT GROWTH” (Bayer Aktiengesellschaft, priority 2020, published 2024)
Where two headings read alike, the source gives them in different places.

What was measured:
Assay type in all cases: in vivo
[1] = tested on: Oryza sativa (ORYSA); details: crop plant compatibility, effect in comparison to untreated controls
Summary of the method: (§1)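 Percent effect on the crop was judged by eye against untreated controls, where 0% means like control and 100% means dead plants. Plants had been sprayed post-emergence at the one-leaf stage and then kept under optimum greenhouse conditions for about 3 weeks.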

[2] = tested on: Amaranthus retroflexus (AMARE); experiment: Post-emergence herbicidal action against AMARE; details: 320 g/ha, visual rating about 3 weeks after treatment
Summary of the method: (§2)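 Post-emergence greenhouse spray, one-leaf stage, 600 l/ha water plus 0.5% additive; WP or EC formulations; application rates 320 g/ha or lower. Visual % damage vs untreated controls at ~3 weeks.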

[3] = tested on: Setaria viridis (SETVI); experiment: Post-emergence herbicidal action against SETVI
Summary of the method: as §2

[4] = tested on: Echinochloa crus-galli (ECHCG); experiment: Post-emergence herbicidal action against ECHCG
Summary of the method: as §2

[5] = tested on: Matricaria inodora (MATIN); experiment: Pre-emergence herbicidal action against MATIN
Summary of the method: (§3)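 Pre-emergence soil-surface spray, WP/EC formulation, 0.5% additive, 600 l/ha water, rates of 320 g/ha or lower. Greenhouse, ~3 wk. Visual score, % of untreated control (100% = plants dead, 0% = like control).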

[6] = tested on: Avena fatua (AVEFA); experiment: Post-emergence herbicidal action against AVEFA; details: visual rating about 3 weeks after treatment
Summary of the method: as §2

[7] = tested on: Amaranthus retroflexus (AMARE); experiment: Pre-emergence herbicidal action against AMARE; details: visual scoring after about 3 weeks vs untreated controls
Summary of the method: as §3

[8] = tested on: Polygonum convolvulus (POLCO); experiment: Pre-emergence herbicidal action against POLCO; details: dosage 320 g/ha
Summary of the method: as §3

[9] = tested on: Viola tricolor (VIOTR); experiment: Pre-emergence herbicidal action against VIOTR; details: 320 g/ha, Viola tricolor
Summary of the method: as §3

[10] = tested on: Brassica napus (BRSNW); details: crop plant compatibility, in comparison to untreated controls
Summary of the method: (§4)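 Crop injury rated visually in percent against untreated plants roughly 3 weeks after treatment (0% no effect, 100% plants dead). Compounds, as WP or EC with 0.5% additive in 600 l/ha water, were applied to the covering soil right after sowing; greenhouse growth. Suffixes a, b, c denote different dosages.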

[11] = tested on: Triticum aestivum (TRZAS); details: pre-emergence, crop plant compatibility, in comparison to untreated controls
Summary of the method: as §4

[12] = tested on: Glycine max (GLXMA); details: pre-emergence, crop plant compatibility, in comparison to untreated controls
Summary of the method: as §4

[13] = tested on: Verconica persica (VERPE); experiment: Pre-emergence herbicidal action against VERPE; details: dosage 320 g/ha
Summary of the method: as §3

[14] = tested on: Setaria viridis (SETVI); experiment: Pre-emergence herbicidal action against SETVI; details: dosage 320 g/ha
Summary of the method: as §3

[15] = tested on: Lolium rigidum (LOLRI); experiment: Pre-emergence herbicidal action against LOLRI; details: dosage 320 g/ha
Summary of the method: as §3

[16] = tested on: Polygonum convolvulus (POLCO); experiment: Post-emergence herbicidal action against POLCO; details: dosage 320 g/ha
Summary of the method: as §2

[17] = tested on: Echinochloa crus-galli (ECHCG); experiment: Pre-emergence herbicidal action against ECHCG; details: dosage 320 g/ha
Summary of the method: as §3

[18] = tested on: Alopecurus myosuroides (ALOMY); experiment: Pre-emergence herbicidal action against ALOMY; details: 320 g/ha; scored visually after about 3 weeks; 100% = plants have died
Summary of the method: as §3

[19] = tested on: Zea mays (ZEAMX); details: crop plant compatibility, effect vs untreated controls
Summary of the method: as §1

[20] = tested on: Triticum aestivum (TRZAS); details: crop plant compatibility, 80 g/ha, effect vs untreated controls
Summary of the method: as §1

[21] = tested on: Oryza sativa (ORYSA); details: pre-emergence, crop plant compatibility, in comparison to untreated controls
Summary of the method: as §4

[22] = tested on: Zea mays (ZEAMX); details: pre-emergence, crop plant compatibility, in comparison to untreated controls
Summary of the method: as §4

[23] = tested on: Pharbitis purpurea (PHBPU); experiment: Post-emergence herbicidal action against PHBPU
Summary of the method: as §2

[24] = tested on: Lolium rigidum (LOLRI); experiment: Post-emergence herbicidal action against LOLRI; details: dosage 320 g/ha
Summary of the method: as §2

[25] = tested on: Abutilon theophrasti (ABUTH); experiment: Post-emergence herbicidal action against ABUTH; details: 320 g/ha, visual rating about 3 weeks after treatment vs untreated controls (100% = plants have died, 0% = like control plants)
Summary of the method: as §2

[26] = tested on: Avena fatua (AVEFA); experiment: Pre-emergence herbicidal action against AVEFA; details: 320 g/ha, visual scoring after about 3 weeks vs untreated controls
Summary of the method: as §3

[27] = tested on: Alopecurus myosuroides (ALOMY); experiment: Post-emergence herbicidal action against ALOMY; details: 320 g/ha, visual rating about 3 weeks after treatment vs untreated controls (100% = plants have died, 0% = like control plants)
Summary of the method: as §2

[28] = tested on: Matricaria inodora (MATIN); experiment: Post-emergence herbicidal action against MATIN; details: dosage 320 g/ha
Summary of the method: as §2

[29] = tested on: Viola tricolor (VIOTR); experiment: Post-emergence herbicidal action against VIOTR
Summary of the method: as §2

SMILES | Post-emergence action against ORYSA in % ([1]; 80 g/ha) | Post-emergence action against ORYSA in % ([1]; 320 g/ha) | Post-emergence action against AMARE in % [2] | Post-emergence action against SETVI in % ([3]; dosage 320 g/ha) | Pre-emergence action against MATIN in % ([5]; dosage 320 g/ha) | Post-emergence action against AVEFA in % ([6]; 320 g/ha) | Pre-emergence action against AMARE in % ([7]; 320 g/ha) | Pre-emergence action against VIOTR in % [9] | Pre-emergence action against BRSNW in % ([10]; 80 g/ha) | Pre-emergence action against TRZAS in % ([11]; 80 g/ha) | Pre-emergence action against GLXMA in % ([12]; 80 g/ha) | Pre-emergence action against SETVI in % [14] | Pre-emergence action against LOLRI in % [15] | Post-emergence action against ZEAMX in % ([19]; 80 g/ha) | Post-emergence action against TRZAS in % [20] | Pre-emergence action against ORYSA in % ([21]; 80 g/ha) | Pre-emergence action against ORYSA in % ([21]; 320 g/ha) | Pre-emergence action against ZEAMX in % ([22]; 80 g/ha) | Pre-emergence action against ZEAMX in % ([22]; 320 g/ha) | Pre-emergence action against GLXMA in % ([12]; 320 g/ha) | other results
COC(=O)CNC(=O)CSc1nn(-c2ccccn2)c(-c2cncnc2)c1Br [Example I-65] | 0% | 0% | 80% | 80% | 90% | 80% | 90% | 100% | 20% | 20% | 20% | 90% | 90% | – | – | – | – | – | – | – | Post-emergence action against ECHCG in % ([4]; dosage 80 g/ha): 80%; Post-emergence action against ECHCG in % ([4]; dosage 320 g/ha): 80%; Pre-emergence action against MATIN in % ([5]; dosage 80 g/ha): 80%; Pre-emergence action against POLCO in % [8]: 90%; Pre-emergence action against VERPE in % [13]: 80%; Post-emergence action against POLCO in % [16]: 80%; Pre-emergence action against ECHCG in % [17]: 90%; Pre-emergence action against ALOMY [18]: 80%
O=C(O)CNC(=O)COc1nn(-c2ccnc(F)c2)c(-c2ccc(F)nc2)c1Br [III-26] | 10% | 20% | – | – | – | – | – | – | 0% | 0% | 0% | – | – | 20% | 20% | 0% | 0% | 0% | 0% | – | Pre-emergence action against TRZAS in % ([11]; 320 g/ha): 20%
CCOC(=O)COc1nn(-c2ncccc2OC)c(-c2ccc(F)nc2)c1I [Example I-386] | 0% | 0% | – | – | – | – | – | – | 0% | 20% | 0% | – | – | 0% | – | 0% | 20% | 0% | 0% | 0% | Post-emergence action against ZEAMX in % ([19]; 320 g/ha): 0%; Pre-emergence action against BRSNW in % ([10]; 320 g/ha): 0%
COC(=O)COc1nn(-c2ncccc2OC)c(-c2ccc(F)nc2)c1Cl [Example I-346] | 0% | 0% | – | – | – | – | – | 80% | 0% | 0% | 0% | – | – | 0% | 10% | – | 0% | 0% | 0% | 20% | Post-emergence action against PHBPU in % ([23]; dosage 320 g/ha): 90%; Post-emergence action against ZEAMX in % ([19]; 320 g/ha): 0%; Pre-emergence action against BRSNW in % ([10]; 320 g/ha): 20%
O=C(O)CSc1nn(-c2ccccn2)c(-c2ccc(F)nc2)c1Br [Example I-69] | 0% | 10% | 80% | 80% | 90% | 100% | 90% | 90% | 20% | 0% | – | 100% | 80% | – | 0% | 0% | – | – | – | 20% | Post-emergence action against PHBPU in % ([23]; dosage 80 g/ha): 80%; Post-emergence action against PHBPU in % ([23]; dosage 320 g/ha): 80%; Post-emergence action against LOLRI in % [24]: 80%; Post-emergence action against SETVI in % ([3]; dosage 80 g/ha): 80%; Post-emergence action against AVEFA in % ([6]; 80 g/ha): 80%; Pre-emergence action against AMARE in % ([7]; 80 g/ha): 80%; Post-emergence action against ABUTH in % [25]: 80%; Pre-emergence action against AVEFA in % [26]: 80%; Pre-emergence action against ECHCG in % [17]: 90%; Post-emergence action against ALOMY in % [27]: 90%; Post-emergence action against MATIN in % [28]: 80%; Post-emergence action against VIOTR in % ([29]; 80 g/ha): 80%; Post-emergence action against VIOTR in % ([29]; 320 g/ha): 80%
